Laboratory results taken from patent US20240124427A1, “HYDROXYHETEROCYCLOALKANE-CARBAMOYL DERIVATIVES” (Idorsia Pharmaceuticals Ltd, priority 2021, published 2024).

Each compound was assayed against human Gal-3 (hGal-3) (Homo sapiens (Human), UniProt P17931) (assay: Competitive binding assay: biotinylated hGal-3 binding to microplate-adsorbed asialofetuin (ASF)). Conditions: Activity on hGal-3; mean values of several measurements; mixture of diastereomers measured where not separated.
Summary of the method: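 Biotinylated human Gal-3 binding to plate-adsorbed asialofetuin, competed by compound, 3 h at 4 °C. Bound protein detected with streptavidin-peroxidase (1 h, 4 °C) and ABTS substrate. IC50 reported as mean of several measurements.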

Chain of human Gal-3 (hGal-3) (P17931 whole entry): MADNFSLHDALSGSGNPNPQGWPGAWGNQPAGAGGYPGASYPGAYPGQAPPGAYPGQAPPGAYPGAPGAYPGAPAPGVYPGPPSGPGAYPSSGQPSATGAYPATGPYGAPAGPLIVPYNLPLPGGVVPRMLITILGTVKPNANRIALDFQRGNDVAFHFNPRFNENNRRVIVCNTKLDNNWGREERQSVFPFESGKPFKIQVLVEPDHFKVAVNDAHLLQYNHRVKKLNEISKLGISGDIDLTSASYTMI

| IC50 [nM] | Structure (SMILES) |
| --- | --- |
| 299 | CO[C@@H]1[C@@H](n2cc(-c3cc(F)c(F)c(F)c3)nn2)[C@@H](O)[C@@H](CO)O[C@H]1C(=O)N(c1cc(Cl)cc(Cl)c1)[C@@H]1CCOC[C@H]1O [Example 103, (2R,3R,4S,5R,6R)-N-(3,5-dichlorophenyl)-5-hydroxy-6-(hydroxymethyl)-N-((3S,4R)-3-hydroxytetrahydro-2H-pyran-4-yl)-3-methoxy-4-(4-(3,4,5-trifluorophenyl)-1H-1,2,3-triazol-1-yl)tetrahydro-2H-pyran-2-carboxamide] |
| 18 | CO[C@@H]1[C@@H](n2cc(-c3cc(F)c(F)c(F)c3)nn2)[C@@H](O)[C@@H](CO)O[C@H]1C(=O)N(c1cc(Cl)cc(Cl)c1)[C@H]1COCC[C@@H]1O [Example 105, (2R,3R,4S,5R,6R)-N-(3,5-dichlorophenyl)-5-hydroxy-6-(hydroxymethyl)-N-((3S,4S)-4-hydroxytetrahydro-2H-pyran-3-yl)-3-methoxy-4-(4-(3,4,5-trifluorophenyl)-1H-1,2,3-triazol-1-yl)tetrahydro-2H-pyran-2-carboxamide] |
| 13 | CO[C@@H]1[C@@H](n2cc(-c3cc(F)c(F)c(F)c3)nn2)[C@@H](O)[C@@H](CO)O[C@H]1C(=O)N(c1cc(C)cc(Br)c1)[C@H]1COCC[C@@H]1O [Example 106, (2R,3R,4S,5R,6R)-N-(3-bromo-5-methylphenyl)-5-hydroxy-6-(hydroxymethyl)-N-((3S,4S)-4-hydroxytetrahydro-2H-pyran-3-yl)-3-methoxy-4-(4-(3,4,5-trifluorophenyl)-1H-1,2,3-triazol-1-yl)tetrahydro-2H-pyran-2-carboxamide] |

The next lines start with the compound.

| Structure (SMILES) | IC50 [nM] |
| --- | --- |
| CO[C@@H]1[C@@H](n2cc(-c3cc(F)c(F)c(F)c3)nn2)[C@@H](O)[C@@H](CO)O[C@H]1C(=O)N(c1cc(Cl)cc(C#N)c1)[C@H]1CCOC[C@@H]1O [Example 100, (2R,3R,4S,5R,6R)-N-(3-chloro-5-cyanophenyl)-5-hydroxy-6-(hydroxymethyl)-N-((3R,4S)-3-hydroxytetrahydro-2H-pyran-4-yl)-3-methoxy-4-(4-(3,4,5-trifluorophenyl)-1H-1,2,3-triazol-1-yl)tetrahydro-2H-pyran-2-carboxamide] | 16 |
| CO[C@@H]1[C@@H](n2cc(-c3cc(F)c(F)c(F)c3)nn2)[C@@H](O)[C@@H](CO)O[C@H]1C(=O)N(c1cc(Br)cc(C#N)c1)[C@H]1CCOC[C@@H]1O [Example 101, (2R,3R,4S,5R,6R)-N-(3-bromo-5-cyanophenyl)-5-hydroxy-6-(hydroxymethyl)-N-((3R,4S)-3-hydroxytetrahydro-2H-pyran-4-yl)-3-methoxy-4-(4-(3,4,5-trifluorophenyl)-1H-1,2,3-triazol-1-yl)tetrahydro-2H-pyran-2-carboxamide] | 14 |
| CO[C@@H]1[C@@H](n2cc(-c3cc(F)c(F)c(F)c3)nn2)[C@@H](O)[C@@H](CO)O[C@H]1C(=O)N(c1cc(C)cc(Br)c1)[C@H]1CCOC[C@@H]1O [Example 102, (2R,3R,4S,5R,6R)-N-(3-bromo-5-methylphenyl)-5-hydroxy-6-(hydroxymethyl)-N-((3R,4S)-3-hydroxytetrahydro-2H-pyran-4-yl)-3-methoxy-4-(4-(3,4,5-trifluorophenyl)-1H-1,2,3-triazol-1-yl)tetrahydro-2H-pyran-2-carboxamide] | 14 |
| CO[C@@H]1[C@@H](n2cc(-c3cc(F)c(F)c(F)c3)nn2)[C@@H](O)[C@@H](CO)O[C@H]1C(=O)N(c1cc(C)cc(Br)c1)[C@@H]1CCOC[C@H]1O [Example 104, (2R,3R,4S,5R,6R)-N-(3-bromo-5-methylphenyl)-5-hydroxy-6-(hydroxymethyl)-N-((3S,4R)-3-hydroxytetrahydro-2H-pyran-4-yl)-3-methoxy-4-(4-(3,4,5-trifluorophenyl)-1H-1,2,3-triazol-1-yl)tetrahydro-2H-pyran-2-carboxamide] | 256 |
